Assay results as given in US20120052130A1, “GPR 119 MODULATORS” (Pfizer Inc., priority 2009, published 2012).

Tests used:
human GPR119 [1] = biological target: T1, human GPR119 (Homo sapiens, UniProt Q8TDV5); test: β-lactamase reporter functional assay for GPR119 agonists (hGPR119 HEK293-CRE beta-lactamase cells); format: cell-based; design: host or cells: hGPR119-HEK293-CRE-beta-lactamase cells; Emax: dose or concentration left out as unconfirmed; details: percent of maximal activity relative to standard GPR119 agonist (WO2005121121) at 10 micromolar; read-out: Human B-lactamase Intrinsic Activity*
T1 sequence (Q8TDV5 1-335): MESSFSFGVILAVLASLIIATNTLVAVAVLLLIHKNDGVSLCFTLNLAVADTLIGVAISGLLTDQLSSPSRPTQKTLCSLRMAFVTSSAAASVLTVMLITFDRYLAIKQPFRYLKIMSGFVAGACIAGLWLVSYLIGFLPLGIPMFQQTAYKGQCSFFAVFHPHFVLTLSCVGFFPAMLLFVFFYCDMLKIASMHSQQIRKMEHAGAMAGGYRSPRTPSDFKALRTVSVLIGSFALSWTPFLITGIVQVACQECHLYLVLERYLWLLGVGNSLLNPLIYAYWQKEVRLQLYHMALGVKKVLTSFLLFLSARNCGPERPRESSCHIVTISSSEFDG
Protocol: The assay for GPR119 agonists utilizes a cell-based (hGPR119HEK293-CRE beta-lactamase) reporter construct where agonist activation of human GPR119 is coupled to beta-lactamase production via a cyclic AMP response element (CRE). GPR119 activity is then measured utilizing a FRET-enabled beta-lactamase substrate, CCF4-AM (Live Blazer FRET-B/G Loading kit, Invitrogen cat #K1027). […] Fluorescence was measured on an EnVision fluorimetric plate reader, excitation 405 nm, emission 460 nm/535 nm. EC50 determinations were made from agonist-response curves analyzed with a curve fitting program using a 4-parameter logistic dose-response equation.

human GPR119 [2] = biological target: T1, human GPR119; test: HTRF cAMP cell-based GPR119 agonist assay (hGPR119 HEK-CRE beta-lactamase cells); design: host or cells: hGPR119-HEK293-CRE-beta-lactamase cells; details: percent of maximal activity relative to standard GPR119 agonist (WO2005121121) at 10 micromolar
Protocol: GPR119 agonist activity was also determined with a cell-based assay utilizing an HTRF (Homogeneous Time-Resolved Fluorescence) cAMP detection kit (cAMP dynamic 2 Assay Kit; Cis Bio cat #62AM4PEC) that measures cAMP levels in the cell. The method is a competitive immunoassay between native cAMP produced by the cells and the cAMP labeled with the dye d2. The tracer binding is visualized by a Mab anti-cAMP labeled with Cryptate. The specific signal (i.e. energy transfer) is inversely proportional to the concentration of cAMP in either standard or sample.
Specifically, hGPR119HEK-CRE beta-lactamase cells (Invitrogen 2.5×10^7/mL; the same cell line used in the beta-lactamase assay described above) are removed from cryopreservation and diluted in growth medium (Dulbecco's modified Eagle medium high glucose (DMEM; Gibco Cat #11995-065), 1% charcoal dextran treated fetal bovine serum (CD serum; HyClone Cat # SH30068.03), 1×MEM Nonessential amino acids (Gibco Cat #15630-080) and 25 mM HEPES pH 7.0 (Gibco Cat #15630-080)). The cell concentration was adjusted to 1.5×10^5 cells/mL and 30 mLs of this suspension was added to a T-175 flask and incubated at 37 degrees Celsius in a humidified environment in 5% carbon dioxide. […]
Varying concentrations of each compound to be tested were diluted in assay buffer containing 3-isobutyl-1-methylxanthin (IBMX; Sigma cat #15879) and added to the assay plate wells in a volume of 2 microL (final IBMX concentration was 400 microM and final DMSO concentration was 0.58%). […] The plates were then incubated at room temperature and after 60 minutes, changes in the HTRF signal were read with an Envision 2104 multilabel plate reader using excitation of 330 nm and emissions of 615 and 665 nm. Raw data were converted to nM cAMP by interpolation from a cAMP standard curve (as described in the manufacturer's assay protocol) and EC50 determinations were made from an agonist-response curves analyzed with a curve fitting program using a 4-paramter logistic dose response equation.

## CC(C)OC(=O)N1C[C@H]2COC[C@@H](C1)[C@@H]2Oc1cc(N2CCc3cc(S(C)(=O)=O)ccc32)ncn1 [Example 2, Isopropyl 9-syn-({6-[5-(methylsulfonyl)-2,3-dihydro-1H-indol-1-yl]pyrimidin-4-yl}oxy)-3-oxa-7-azabicyclo[3.3.1]nonane-7-carboxylate]
Human GPR119 [1]
  Emax: 109%

## CC(C)OC(=O)N1CCC(Oc2cc(N3CCc4cc(S(C)(=O)=O)ccc43)ncn2)CC1 [Example 3, Isopropyl 4-({6-[5-(methylsulfonyl)-2,3-dihydro-1H-indol-1-yl]pyrimidin-4-yl}oxy)piperidine-1-carboxylate]
Human GPR119 [2]
  Human cAMP Intrinsic Activity*: 107%
